Assay results reported in article PMC6662706, “Short amylin receptor antagonist peptides improve memory deficits in Alzheimer’s disease mouse model” (Scientific Reports, 2019).
No end group written: not given here.

Tests used:
5XFAD mice = assay: Brain amyloid pathology and neuroinflammation markers in 5XFAD mice (thioflavin-S, Western blot); assay type: in vivo, mouse
Text: We initiated treatment of 5XFAD and wild-type control mice at 6 month age at a time point when they had also developed very significant amyloid burden in addition to the spatial memory deficits noted above (Fig. 4A). […] There was significant reduction in the amyloid plaque numbers, and the overall amyloid burden (as judged by the area covered by plaques) in these brain regions in the peptide treated mice (Fig. 5B, p < 0.05). […] (Fig. 5C,D, p < 0.05).
After completion of treatments, the mouse brains were harvested and the right hemisphere was frozen for biochemical analysis (Western blot, ELISA), and the left hemisphere was fixed with PAF for further processed. The thicker brain sections were stained thioflavin-S for detecting Aβ plaques.
After completion of treatments, all mice were sacrificed with an overdose of isoflourane anesthetic, perfused transcardially with saline using a pump, and the brains were harvested. The right hemisphere was frozen for biochemical analysis (Western blot, ELISA), and the left hemisphere was fixed with PAF for 24 h at 4 C. These brain tissues were further processed with modified CLARITY protocol (http://www.chunglabresources.com/clarity/). Briefly, the fixed brain tissue was transferred to hydrogel monomer solution (4% acrylamide in PBS) at 4 C for 24 h, and subsequently to a 24-well plate, merged in fresh hydrogel solution and the tissue brought to 37 C till formation of the gel. Thick sagittal slices (400 μm) were cut on an HR2 Slicer (Sigman Electronic, Germany). The thicker brain sections were cleared with 8% SDS in PBS for 24 h, followed by 0.3% Triton X-100 in PBS for 24 h. Blocking the section in 2%BSA-10% goat serum for 4h. A modified thioflavin-S staining was used for detecting Aβ plaques. […] Images were visualized using fluorescence microscopy (Axioplan-2, Carl Zeiss Ltd). Amyloid plaque size and area were analyzed with Image J software.
Frozen brain tissues or cultured cells were homogenized in cold RIPA buffer with protease inhibitors and proteins were quantified with BCA assay (BioRad, Mississauga, ON, Canada). […]

[1] = Observation for off-target effects and body weight during 5 weeks of treatment; assay type: in vivo, mouse; settings: mice
Method: The determination of injection amount of R5 (200 µg/kg) was based on achieving equimolar concentrations as the full length peptide, cAC253[21] and prior studies that used pramlintide injections[22],[23]. The normal mouse circulated endogenous amylin level is 0.7 ± 0.4 pmol/L in plasma[32] and based upon our in vitro data (Fig. 1E) unlikely to perturb the function of peptides in vivo at these concentrations.

[2] = 5 weeks ip, normalized to β-actin, n = 6, p < 0.05

## SQELHRLQTYPR-NH2 [R5]
5XFAD mice; [2]
  amyloid proteins (Aβ, 6E10) in cortical tissue, Western blot, versus normal saline: significantly reduced
  neuroinflammation markers CD68, NLPR3 and caspase-1, Western blot: significantly attenuated
5XFAD mice; ip three times a week for 5 weeks, thioflavin-S
  amyloid pathology in the cortex, hippocampus and thalamus versus saline: significantly reduced amyloid pathology
[1]; 5 weeks of ip treatment
  body weight: no significant changes in body weight
[1]; 5 weeks of ip treatment three times a week
  signs of off-target effects (sedation, gait, feeding or drinking, weight loss, hair loss, grooming): None of the mice receiving cAC253 or R5 showed any signs of off-target effects
